Assay results: ChEMBL document CHEMBL4028801, “A multifactorial approach to hepatobiliary transporter assessment enables improved therapeutic compound development” (Toxicol Sci, 2013)
Where a name gives a salt, the structure may show the parent alone.

How the values were obtained:
[1] = biological target: ATP-binding cassette sub-family C member 3 (Homo sapiens, UniProt O15438); test: Inhibition of human MRP3 overexpressed in Sf9 insect cell membrane vesicles assessed as uptake of [3H]-estradiol-17beta-D-glucuronide in presence of ATP and GSH measured after 10 mins by membrane vesicle transport assay; format: ADME, cell-based
Sequence of ATP-binding cassette sub-family C member 3 (O15438 whole entry): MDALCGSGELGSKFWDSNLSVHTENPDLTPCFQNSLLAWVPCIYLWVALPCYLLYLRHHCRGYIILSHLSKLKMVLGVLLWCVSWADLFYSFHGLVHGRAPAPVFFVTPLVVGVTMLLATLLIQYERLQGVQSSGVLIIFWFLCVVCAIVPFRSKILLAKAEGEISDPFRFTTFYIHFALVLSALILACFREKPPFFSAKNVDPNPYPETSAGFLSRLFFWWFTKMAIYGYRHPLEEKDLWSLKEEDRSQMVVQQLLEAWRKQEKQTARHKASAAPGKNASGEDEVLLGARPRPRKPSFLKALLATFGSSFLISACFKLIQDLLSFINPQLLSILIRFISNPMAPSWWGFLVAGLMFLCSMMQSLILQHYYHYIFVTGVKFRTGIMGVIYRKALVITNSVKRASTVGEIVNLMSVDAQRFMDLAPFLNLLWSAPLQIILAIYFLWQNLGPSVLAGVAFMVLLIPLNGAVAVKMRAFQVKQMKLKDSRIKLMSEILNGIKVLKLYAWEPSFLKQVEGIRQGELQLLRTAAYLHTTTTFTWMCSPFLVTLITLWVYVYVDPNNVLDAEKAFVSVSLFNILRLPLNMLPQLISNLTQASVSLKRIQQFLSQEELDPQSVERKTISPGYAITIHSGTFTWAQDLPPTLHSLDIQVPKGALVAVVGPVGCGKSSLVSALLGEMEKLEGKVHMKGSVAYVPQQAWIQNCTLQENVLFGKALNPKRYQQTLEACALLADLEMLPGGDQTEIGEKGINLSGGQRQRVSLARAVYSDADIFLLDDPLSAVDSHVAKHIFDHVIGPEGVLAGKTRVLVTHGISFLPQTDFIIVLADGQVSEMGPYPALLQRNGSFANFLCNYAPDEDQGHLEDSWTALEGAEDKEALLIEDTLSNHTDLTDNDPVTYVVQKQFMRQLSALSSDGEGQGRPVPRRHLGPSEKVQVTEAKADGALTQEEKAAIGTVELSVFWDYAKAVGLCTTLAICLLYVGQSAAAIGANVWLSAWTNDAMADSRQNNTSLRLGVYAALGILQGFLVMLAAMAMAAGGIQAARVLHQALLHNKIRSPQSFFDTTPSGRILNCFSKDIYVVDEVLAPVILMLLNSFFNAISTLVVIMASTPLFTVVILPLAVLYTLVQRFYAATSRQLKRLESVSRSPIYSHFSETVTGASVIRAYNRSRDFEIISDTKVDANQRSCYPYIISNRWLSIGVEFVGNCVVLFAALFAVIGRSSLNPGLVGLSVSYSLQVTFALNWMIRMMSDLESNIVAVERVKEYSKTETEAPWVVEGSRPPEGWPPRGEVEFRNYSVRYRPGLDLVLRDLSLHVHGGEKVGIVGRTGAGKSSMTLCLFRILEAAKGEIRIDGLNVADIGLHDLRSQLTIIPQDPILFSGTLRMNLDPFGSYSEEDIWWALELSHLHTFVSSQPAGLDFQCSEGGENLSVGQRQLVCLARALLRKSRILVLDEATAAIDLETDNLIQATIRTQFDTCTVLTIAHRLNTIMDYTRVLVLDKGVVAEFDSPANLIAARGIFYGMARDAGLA

[2] = biological target: T1, ATP-binding cassette sub-family C member 4 (Homo sapiens, UniProt O15439); test: Inhibition of human MRP4 overexpressed in Sf9 cell membrane vesicles assessed as uptake of [3H]-estradiol-17beta-D-glucuronide in presence of ATP and GSH measured after 20 mins by membrane vesicle transport assay; format: ADME, cell-based
T1 sequence (O15439 whole entry): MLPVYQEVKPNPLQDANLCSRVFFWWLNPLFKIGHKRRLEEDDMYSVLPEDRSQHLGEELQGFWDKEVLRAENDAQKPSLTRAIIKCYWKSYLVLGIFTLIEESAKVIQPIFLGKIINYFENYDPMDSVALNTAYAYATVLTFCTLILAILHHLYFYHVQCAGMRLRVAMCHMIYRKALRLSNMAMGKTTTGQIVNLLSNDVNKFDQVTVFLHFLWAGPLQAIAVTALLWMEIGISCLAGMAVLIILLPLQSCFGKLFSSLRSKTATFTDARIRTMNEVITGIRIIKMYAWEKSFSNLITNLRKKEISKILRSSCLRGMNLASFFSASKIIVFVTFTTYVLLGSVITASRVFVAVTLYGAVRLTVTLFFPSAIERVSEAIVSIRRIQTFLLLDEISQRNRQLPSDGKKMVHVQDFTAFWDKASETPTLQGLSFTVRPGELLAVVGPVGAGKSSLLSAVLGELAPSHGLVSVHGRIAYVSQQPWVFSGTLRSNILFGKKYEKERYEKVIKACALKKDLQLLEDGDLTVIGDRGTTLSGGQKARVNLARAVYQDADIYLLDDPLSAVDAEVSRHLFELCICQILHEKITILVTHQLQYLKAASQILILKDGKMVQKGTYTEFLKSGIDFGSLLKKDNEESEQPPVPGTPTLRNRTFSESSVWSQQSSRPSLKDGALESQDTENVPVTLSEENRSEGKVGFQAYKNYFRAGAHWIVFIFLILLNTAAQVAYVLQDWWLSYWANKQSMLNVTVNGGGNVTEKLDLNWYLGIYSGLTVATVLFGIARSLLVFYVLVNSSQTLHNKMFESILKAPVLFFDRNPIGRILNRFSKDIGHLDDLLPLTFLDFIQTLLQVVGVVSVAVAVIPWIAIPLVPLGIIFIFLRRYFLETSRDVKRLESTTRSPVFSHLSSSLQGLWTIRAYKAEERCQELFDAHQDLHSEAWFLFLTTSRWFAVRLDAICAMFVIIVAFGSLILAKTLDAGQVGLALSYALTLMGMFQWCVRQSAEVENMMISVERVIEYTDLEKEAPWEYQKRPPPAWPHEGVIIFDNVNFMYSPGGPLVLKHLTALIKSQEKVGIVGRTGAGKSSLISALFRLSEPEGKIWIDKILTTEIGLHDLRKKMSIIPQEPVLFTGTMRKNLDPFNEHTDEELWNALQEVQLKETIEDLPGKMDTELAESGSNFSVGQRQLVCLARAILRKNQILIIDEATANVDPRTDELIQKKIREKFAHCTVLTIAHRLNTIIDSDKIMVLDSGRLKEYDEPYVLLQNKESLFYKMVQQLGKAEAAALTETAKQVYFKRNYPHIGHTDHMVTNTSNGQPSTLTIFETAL

[3] = biological target: ATP-binding cassette sub-family C member 2 (Homo sapiens, UniProt Q92887); test: Inhibition of human MRP2 overexpressed in Sf9 cell membrane vesicles assessed as uptake of [3H]-estradiol-17beta-D-glucuronide in presence of ATP and GSH measured after 20 mins by membrane vesicle transport assay
Sequence of ATP-binding cassette sub-family C member 2 (Q92887 whole entry): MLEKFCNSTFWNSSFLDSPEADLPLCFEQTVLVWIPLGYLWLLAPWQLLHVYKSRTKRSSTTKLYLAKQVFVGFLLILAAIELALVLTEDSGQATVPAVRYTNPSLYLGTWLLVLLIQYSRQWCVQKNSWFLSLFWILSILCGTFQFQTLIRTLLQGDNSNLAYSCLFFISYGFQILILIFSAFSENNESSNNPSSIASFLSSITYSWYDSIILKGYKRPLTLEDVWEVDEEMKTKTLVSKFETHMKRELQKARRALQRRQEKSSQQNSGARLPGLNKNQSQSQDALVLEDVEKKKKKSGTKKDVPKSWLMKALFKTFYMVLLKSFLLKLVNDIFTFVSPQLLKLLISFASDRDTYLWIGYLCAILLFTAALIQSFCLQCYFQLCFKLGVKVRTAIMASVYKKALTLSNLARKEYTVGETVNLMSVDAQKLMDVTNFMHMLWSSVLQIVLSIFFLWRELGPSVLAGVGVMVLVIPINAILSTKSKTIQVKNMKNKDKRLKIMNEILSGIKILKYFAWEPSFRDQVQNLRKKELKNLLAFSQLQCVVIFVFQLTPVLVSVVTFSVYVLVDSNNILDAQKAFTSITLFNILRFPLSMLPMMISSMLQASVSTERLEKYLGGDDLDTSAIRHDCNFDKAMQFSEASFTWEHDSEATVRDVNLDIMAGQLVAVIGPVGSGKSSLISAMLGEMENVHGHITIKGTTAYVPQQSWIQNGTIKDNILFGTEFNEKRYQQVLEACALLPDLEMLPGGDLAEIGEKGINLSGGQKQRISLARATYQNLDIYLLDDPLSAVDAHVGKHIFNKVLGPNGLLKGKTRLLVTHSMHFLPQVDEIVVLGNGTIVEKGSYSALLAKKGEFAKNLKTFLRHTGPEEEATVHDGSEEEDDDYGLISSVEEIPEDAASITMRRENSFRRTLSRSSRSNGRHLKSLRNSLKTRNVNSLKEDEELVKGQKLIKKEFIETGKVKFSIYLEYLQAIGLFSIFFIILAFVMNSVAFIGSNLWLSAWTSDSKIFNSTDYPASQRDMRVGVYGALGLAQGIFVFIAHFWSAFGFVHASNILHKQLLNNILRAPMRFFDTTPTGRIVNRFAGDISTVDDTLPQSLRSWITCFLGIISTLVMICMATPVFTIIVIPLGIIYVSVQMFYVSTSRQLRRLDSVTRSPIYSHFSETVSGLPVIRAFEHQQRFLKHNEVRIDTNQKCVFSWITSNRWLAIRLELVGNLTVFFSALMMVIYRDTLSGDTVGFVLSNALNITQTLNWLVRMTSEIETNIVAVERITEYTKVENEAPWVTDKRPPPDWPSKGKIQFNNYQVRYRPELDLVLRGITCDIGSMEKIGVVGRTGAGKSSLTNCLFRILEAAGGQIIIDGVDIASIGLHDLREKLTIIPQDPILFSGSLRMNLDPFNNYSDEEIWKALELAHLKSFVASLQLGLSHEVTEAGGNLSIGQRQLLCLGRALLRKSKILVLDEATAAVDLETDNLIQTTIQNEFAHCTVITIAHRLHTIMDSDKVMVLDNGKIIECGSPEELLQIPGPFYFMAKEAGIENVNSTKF

[4] = biological target: Bile salt export pump (Homo sapiens, UniProt O95342); test: Inhibition of human BSEP overexpressed in Sf9 cell membrane vesicles assessed as uptake of [3H]-taurocholate in presence of ATP measured after 15 to 20 mins by membrane vesicle transport assay; format: ADME, cell-based
Sequence of Bile salt export pump (O95342 whole entry): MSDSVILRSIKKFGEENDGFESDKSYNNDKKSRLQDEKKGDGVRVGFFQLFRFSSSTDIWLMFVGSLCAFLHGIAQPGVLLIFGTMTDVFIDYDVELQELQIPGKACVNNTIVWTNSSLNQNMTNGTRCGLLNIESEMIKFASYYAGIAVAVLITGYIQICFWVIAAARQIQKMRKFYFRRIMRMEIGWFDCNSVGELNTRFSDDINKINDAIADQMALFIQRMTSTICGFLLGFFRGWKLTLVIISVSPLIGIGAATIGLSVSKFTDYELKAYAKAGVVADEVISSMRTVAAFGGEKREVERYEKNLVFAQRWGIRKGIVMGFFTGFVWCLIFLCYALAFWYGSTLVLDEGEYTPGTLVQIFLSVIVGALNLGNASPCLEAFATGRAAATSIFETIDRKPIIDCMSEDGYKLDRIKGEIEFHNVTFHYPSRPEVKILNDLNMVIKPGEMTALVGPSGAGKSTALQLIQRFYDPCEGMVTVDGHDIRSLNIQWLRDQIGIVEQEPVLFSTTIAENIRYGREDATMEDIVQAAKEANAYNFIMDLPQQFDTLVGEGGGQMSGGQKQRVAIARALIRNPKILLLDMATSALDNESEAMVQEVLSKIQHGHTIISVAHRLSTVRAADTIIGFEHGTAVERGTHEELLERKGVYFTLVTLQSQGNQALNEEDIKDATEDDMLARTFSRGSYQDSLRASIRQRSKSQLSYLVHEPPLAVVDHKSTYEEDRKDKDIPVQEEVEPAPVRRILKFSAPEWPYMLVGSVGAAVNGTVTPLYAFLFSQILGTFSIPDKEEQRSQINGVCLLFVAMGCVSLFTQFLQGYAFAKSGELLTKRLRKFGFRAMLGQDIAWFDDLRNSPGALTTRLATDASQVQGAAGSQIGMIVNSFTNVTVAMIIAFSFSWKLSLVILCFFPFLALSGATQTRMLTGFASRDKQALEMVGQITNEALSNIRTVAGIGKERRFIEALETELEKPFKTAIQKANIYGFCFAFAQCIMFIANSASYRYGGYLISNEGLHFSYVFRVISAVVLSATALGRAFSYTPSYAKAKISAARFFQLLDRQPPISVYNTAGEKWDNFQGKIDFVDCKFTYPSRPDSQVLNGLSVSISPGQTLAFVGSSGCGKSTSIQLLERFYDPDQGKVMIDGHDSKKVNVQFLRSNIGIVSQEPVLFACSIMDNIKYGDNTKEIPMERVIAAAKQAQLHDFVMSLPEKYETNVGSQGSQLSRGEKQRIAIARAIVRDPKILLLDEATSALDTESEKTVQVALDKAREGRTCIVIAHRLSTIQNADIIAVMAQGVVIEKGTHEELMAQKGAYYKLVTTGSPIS

Row | SMILES | IC50 [1] | IC50 [2] | IC50 [3] | IC50 [4]
1 | Cc1nc2ccc(CN(C)c3ccc(C(=O)N[C@@H](CCC(=O)O)C(=O)O)s3)cc2c(=O)[nH]1 [RALTITREXED] | > 133 µM | > 133 µM | > 133 µM | > 133 µM
2 | CC[C@]1(O)C[C@@H]2CN(CCc3c([nH]c4ccccc34)[C@@](C(=O)OC)(c3cc4c(cc3OC)N(C)[C@H]3[C@@](O)(C(=O)OC)[C@H](OC(C)=O)[C@]5(CC)C=CCN6CC[C@]43[C@@H]65)C2)C1 [VINBLASTINE] | > 133 µM | 35.1 µM | > 133 µM | > 133 µM
3 | S=C=Nc1cccc2ccccc12 [1-NAPHTHYLISOTHIOCYANATE] | > 133 µM | > 133 µM | > 133 µM | 69 µM
4 | Cc1cccc(Nc2cc(Cl)nc(SCC(=O)O)n2)c1C [PIRINIXIC ACID] | > 133 µM | 44.9 µM | > 133 µM | 99 µM
5 | O=NN(CCCl)C(=O)NCCCl [CARMUSTINE] | > 133 µM | > 133 µM | > 133 µM | > 133 µM
6 | COc1ccc2cccc(CCNC(C)=O)c2c1 [AGOMELATINE] | > 133 µM | > 133 µM | > 133 µM | > 133 µM
7 | NC[C@H]1O[C@H](O[C@H]2[C@H](O)[C@@H](O[C@H]3O[C@H](CO)[C@@H](O)[C@H](N)[C@H]3O)[C@H](N)C[C@@H]2N)[C@H](N)C[C@@H]1O [TOBRAMYCIN] | > 133 µM | > 133 µM | > 133 µM | > 133 µM
8 | CO[C@H]1/C=C/O[C@@]2(C)Oc3c(C)c(O)c4c(O)c(c5c(nc6cc(C)ccn65)c4c3C2=O)NC(=O)/C(C)=C\C=C\[C@H](C)[C@H](O)[C@@H](C)[C@@H](O)[C@@H](C)[C@H](OC(C)=O)[C@@H]1C [RIFAXIMIN] | 65 µM | 30.2 µM | 15.4 µM | 42 µM
9 | Nc1nc(Cl)nc2c1ncn2[C@H]1C[C@H](O)[C@@H](CO)O1 [CLADRIBINE] | > 133 µM | > 133 µM | > 133 µM | > 133 µM
10 | CCN(C(C)=O)c1cccc(-c2ccnc3c(C#N)cnn23)c1 [ZALEPLON] | > 133 µM | > 133 µM | > 133 µM | > 133 µM
11 | O=C(Cn1ccnc1[N+](=O)[O-])NCc1ccccc1 [BENZNIDAZOLE] | > 133 µM | > 133 µM | > 133 µM | > 133 µM
12 | COC[C@@H](NC(C)=O)C(=O)NCc1ccccc1 [LACOSAMIDE] | > 133 µM | > 133 µM | > 133 µM | > 133 µM
13 | C=CC1=C(C(=O)O)N2C(=O)[C@@H](NC(=O)/C(=N\O)c3csc(N)n3)[C@H]2SC1 | > 133 µM | 11.6 µM | > 133 µM | > 133 µM
14 | CCNC(=O)[C@@H]1CCCN1C(=O)[C@H](CCCNC(=N)N)NC(=O)[C@H](CC(C)C)NC(=O)[C@@H](CC(C)C)NC(=O)[C@H](Cc1ccc(O)cc1)NC(=O)[C@H](CO)NC(=O)[C@H](Cc1c[nH]c2ccccc12)NC(=O)[C@H](Cc1c[nH]cn1)NC(=O)[C@@H]1CCC(=O)N1 [LEUPROLIDE ACETATE] | > 133 µM | > 133 µM | 80.2 µM | > 133 µM
15 | CC[C@H]1CN2CCc3cc(OC)c(OC)cc3[C@@H]2C[C@@H]1C[C@H]1NCCc2cc(OC)c(OC)cc21 [EMETINE] | > 133 µM | > 133 µM | > 133 µM | > 133 µM
16 | C=C(C)[C@H]1Cc2c(ccc3c2O[C@@H]2COc4cc(OC)c(OC)cc4[C@@H]2C3=O)O1 [ROTENONE] | > 133 µM | > 133 µM | > 133 µM | 8 µM
17 | CC(NC(C)(C)C)C(=O)c1cccc(Cl)c1 (centres undefined) [BUPROPION HYDROCHLORIDE] | > 133 µM | > 133 µM | > 133 µM | > 133 µM
18 | CCN(CCO)CCCC(C)Nc1ccnc2cc(Cl)ccc12 (centres undefined) [HYDROXYCHLOROQUINE SULFATE] | > 133 µM | > 133 µM | > 133 µM | > 133 µM

Row | SMILES | IC50 [1] | IC50 [2] | IC50 [3] | IC50 [4]
19 | Nc1cccc2c1CN(C1CCC(=O)NC1=O)C2=O (centres undefined) [LENALIDOMIDE] | > 133 µM | > 133 µM | > 133 µM | > 133 µM
20 | Oc1ccc2c(c1)[C@@]13CCCC[C@@]1(O)[C@@H](C2)N(CC1CCC1)CC3 [BUTORPHANOL] | > 133 µM | > 133 µM | > 133 µM | > 133 µM
21 | CS(=O)(=O)c1ccc([C@@H](O)[C@@H](CO)NC(=O)C(Cl)Cl)cc1 [THIAMPHENICOL] | > 133 µM | > 133 µM | > 133 µM | > 133 µM
22 | Cc1ncc([N+](=O)[O-])n1CC(O)CCl (centres undefined) [ORNIDAZOLE] | > 133 µM | > 133 µM | > 133 µM | > 133 µM
23 | CN(C)c1ccc(O)c2c1C[C@H]1C[C@H]3[C@H](N(C)C)C(O)=C(C(N)=O)C(=O)[C@@]3(O)C(O)=C1C2=O [MINOCYCLINE HYDROCHLORIDE] | > 133 µM | > 133 µM | > 133 µM | > 133 µM
24 | CCOc1cc2ncc(C#N)c(Nc3ccc(OCc4ccccn4)c(Cl)c3)c2cc1NC(=O)/C=C/CN(C)C [NERATINIB] | > 133 µM | 23 µM | > 133 µM | 25 µM
25 | Cc1onc(-c2ccccc2)c1C(=O)N[C@@H]1C(=O)N2[C@@H]1SC(C)(C)[C@@H]2C(=O)O | > 133 µM | > 133 µM | > 133 µM | > 133 µM
26 | CC1(C)S[C@@H]2[C@H](NC(=O)[C@H](N)c3ccc(O)cc3)C(=O)N2[C@H]1C(=O)O [AMOXICILLIN] | > 133 µM | > 133 µM | > 133 µM | > 133 µM
27 | CC(=O)Oc1ccc(C(c2ccc(OC(C)=O)cc2)c2ccccn2)cc1 [BISACODYL] | > 133 µM | > 133 µM | > 133 µM | > 133 µM
28 | CCN1CCCC1CNC(=O)c1cc(S(=O)(=O)CC)c(N)cc1OC (centres undefined) [AMISULPRIDE] | > 133 µM | > 133 µM | > 133 µM | > 133 µM
29 | CN1CCc2cccc3c2[C@H]1Cc1ccc(O)c(O)c1-3 [APOMORPHINE] | > 133 µM | > 133 µM | > 133 µM | > 133 µM
30 | N[C@@H](Cc1ccc(O)c(O)c1)C(=O)O [LEVODOPA] | > 133 µM | > 133 µM | > 133 µM | > 133 µM
31 | O=C(O)Cc1ccc(-c2ccccc2)cc1 [FELBINAC] | > 133 µM | 8.2 µM | > 133 µM | > 133 µM
32 | O=C(CC(=O)C(F)(F)F)c1cccs1 | > 133 µM | > 133 µM | > 133 µM | > 133 µM
33 | CN(CCOc1ccc(NS(C)(=O)=O)cc1)CCc1ccc(NS(C)(=O)=O)cc1 [DOFETILIDE] | > 133 µM | > 133 µM | > 133 µM | > 133 µM
34 | Cc1nnc(SCC2=C(C(=O)O)N3C(=O)[C@@H](NC(=O)Cn4cnnn4)[C@H]3SC2)s1 [CEFAZOLIN SODIUM] | > 133 µM | 54.2 µM | > 133 µM | > 133 µM
35 | Cc1oncc1C(=O)Nc1ccc(C(F)(F)F)cc1 [LEFLUNOMIDE] | > 133 µM | > 133 µM | > 133 µM | > 133 µM
36 | C[C@@H]1C/C=C/C=C/C=C/C=C/[C@H](O[C@@H]2O[C@H](C)[C@@H](O)[C@H](N)[C@@H]2O)C[C@@H]2O[C@](O)(C[C@@H](O)C[C@H]3O[C@@H]3/C=C/C(=O)O1)C[C@H](O)[C@H]2C(=O)O [NATAMYCIN] | > 133 µM | > 133 µM | > 133 µM | > 133 µM
